In ChEMBL document CHEMBL1143173, “2D Autocorrelation, CoMFA, and CoMSIA modeling of protein tyrosine kinases' inhibition by substituted pyrido[2,3-d]pyrimidine derivatives” (Bioorg Med Chem, 2008):

Columns and labels:
[1] = Inhibition of PDGFR
[2] = Inhibition of FGFR
[3] = target: Proto-oncogene tyrosine-protein kinase Src (Homo sapiens) (UniProt P12931); experiment: Inhibition of cSrc
Chain of Proto-oncogene tyrosine-protein kinase Src (Homo sapiens) (P12931 2-536 limits assumed): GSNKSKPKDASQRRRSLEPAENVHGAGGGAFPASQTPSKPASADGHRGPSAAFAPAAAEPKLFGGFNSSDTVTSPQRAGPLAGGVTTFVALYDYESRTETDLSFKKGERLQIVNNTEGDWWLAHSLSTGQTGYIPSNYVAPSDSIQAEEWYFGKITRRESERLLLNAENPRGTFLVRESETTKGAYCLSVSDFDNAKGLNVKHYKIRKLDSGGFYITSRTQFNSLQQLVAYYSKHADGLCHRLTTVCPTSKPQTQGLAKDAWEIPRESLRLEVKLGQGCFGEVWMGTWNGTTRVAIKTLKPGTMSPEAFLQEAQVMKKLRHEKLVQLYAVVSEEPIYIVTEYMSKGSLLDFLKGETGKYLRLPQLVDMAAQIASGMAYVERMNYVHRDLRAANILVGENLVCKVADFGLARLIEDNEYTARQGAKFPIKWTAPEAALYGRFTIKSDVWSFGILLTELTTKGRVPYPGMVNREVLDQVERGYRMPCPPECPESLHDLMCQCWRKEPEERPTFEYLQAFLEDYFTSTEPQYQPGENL

SMILES | log(10^6/IC50) [1] | log(10^6/IC50) [2] | log(10^6/IC50) [3]
Cc1ncc2cc(-c3c(Cl)cccc3Cl)c(=O)n(C)c2n1 | 1.3 | 1.3 | 1.3
CN(C)c1ncc2cc(-c3c(Cl)cccc3Cl)c(=O)n(C)c2n1 | 1.3 | 1.3 | 1.3
Cn1c(=O)c(-c2c(Cl)cccc2Cl)cc2cncnc21 | 1.3 | 1.3 | 2
Cn1c(=O)c(-c2c(Cl)cccc2Cl)cc2cnc(Nc3ccc(CC(=O)O)cc3)nc21 | 4.15 | 4.21 | 5
COc1ccc(NC(=O)Nc2nc3nc(NCCCN4CCN(C)CC4)ncc3cc2-c2c(Cl)cccc2Cl)cc1 | – | – | 4.55

Other lines, results leading:

log(10^6/IC50) [1] | log(10^6/IC50) [2] | log(10^6/IC50) [3] | SMILES
1.3 | 1.8 | 1.3 | CN(C)c1cc(-c2cc3cnc(N)nc3nc2NC(=O)NC(C)(C)C)cc(N(C)C)c1
1.3 | 2.78 | 1.3 | CCOc1cc(OCC)cc(-c2cc3cnc(N)nc3nc2NC(=O)NC(C)(C)C)c1
1.3 | 1.3 | 1.3 | CC(C)(C)NC(=O)Nc1nc2nc(N)ncc2cc1-c1cc(C(F)(F)F)cc(C(F)(F)F)c1
3.94 | 4.29 | 5 | CN1CCN(c2ccc(Nc3ncc4cc(-c5c(Cl)cccc5Cl)c(=O)n(C)c4n3)cc2)CC1
1.37 | 3.9 | 1.3 | COc1cc(OC)cc(-c2cc3cnc(N)nc3n(C)c2=O)c1
